Measured values from paper PMC13110849 (ACS chemical neuroscience, 2023).

Molecular target: RhoA•GMPPNP binding to ROCK1 (Homo sapiens, UniProt P61586)
Test: AlphaScreen assay of RhoA•GMPPNP binding to ROCK1
Settings: varying concentration, 24 h, 4 °C

Sequence of RhoA•GMPPNP binding to ROCK1 (P61586 whole entry): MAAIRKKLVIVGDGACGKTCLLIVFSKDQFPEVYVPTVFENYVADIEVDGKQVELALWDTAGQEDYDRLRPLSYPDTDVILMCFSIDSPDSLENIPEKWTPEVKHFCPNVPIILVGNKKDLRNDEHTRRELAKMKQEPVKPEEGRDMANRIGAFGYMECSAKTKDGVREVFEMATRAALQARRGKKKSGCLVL

Nc1nc2c(ncn2[C@@H]2O[C@H](COP(=O)(O)OP(=O)(O)O)[C@@H](O)[C@H]2O)c(=O)[nH]1 [GDP]
Inhibition of RhoA•GMPPNP binding to ROCK1: successfully inhibited
